In experiment [1] the test system is apo A1 secretion in human hepatocytes. As to the kind of experiment: Apo A1 secretion by human hepatocytes (ELISA of supernatant, normalised to cell protein). It is filed as cell-based. Conditions: for Apo A1 (ng secreted per mg cell protein), 1st / Apo A1 (ng secreted per mg cell protein), 2nd / Apo A1 (ng secreted per mg cell protein), mean: 3x24 h; for Apo A1 (ng secreted per mg cell protein), 1st: 1st parallel measurement; for Apo A1 (ng secreted per mg cell protein), 2nd: 2nd parallel measurement; for Apo A1 (ng secreted per mg cell protein), mean: mean of two measurements; for Stimulation of apo A1 secretion versus control level (in words): at concentrations as low as 3 μM, human hepatocytes. Here is the method: Human hepatocytes were isolated from pieces of livers, obtained from donors which could not be used for transplantation, following the procedure described in U.S. Pat. No. 6,444,664. The cells were seeded on culture dishes at a density of 1.5×10^5 viable cells per cm^2 and were maintained for the first 24 h in 1.5 mL per 10 cm^2 of Williams E medium supplemented with 10% heat inactivated fetal calf serum (FCS), 2 mmol/L L-glutamine, 20 mU/mL insulin (135 nmol/L), 50 nmol/L dexamethasone, 100 U/mL penicillin, 100 μg/mL streptomycin and 100 μg/mL kanamycin at 37° C. in a 5% CO2/95% air atmosphere. After 14-16 h the non-adherent cells were washed from the plates, using the same culture medium as described above. 24 h after seeding, the incubations with the compounds were started in 1 mL of the same culture medium, but with an insulin concentration of 10 nmol/L instead of 135 nmol/L.
The human hepatocytes were treated with compounds 5, 6 and 7 (dissolved in DMSO, with the final concentration of DMSO not exceeding 0.1% v/v) at concentrations of 100 μM, 30 μM, 10 μM and 3 μM and incubated for 24 hours. The DMSO concentration in all samples and controls was 0.1%. The control wells contained DMSO (0.1% v/v) alone. The medium on the cells was removed and replaced with fresh medium with fresh compound and incubated for 24 hours. The medium was then again removed and replaced with fresh medium with fresh compound and incubated for another 24 hours. The supernatant was then removed from the cells and levels of apo A1 were determined using a commercially available ELISA (AlerCHEK™) with a HRP conjugated goat anti-apo A1 antibody and TMB/peroxidase substrate colour developer. Supernatants were diluted 1:4 with the wash buffer provided in the kit.
After the last incubation the cells were washed twice with PBS, and BCA (bicinchoninic acid) reagent was added to each well to assay total cellular protein according to standard methods.
A general note: An ELISA detects its analyte on a solid surface through an enzyme-linked reagent.

The subject of experiment [2] is central benzodiazepine receptor (BZD). The experiment is described as follows: Binding to central benzodiazepine receptor, [3H]flunitrazepam displacement on rat cerebral cortex membranes. The procedure: Affinity of the compounds of the invention to the central benzodiazepine receptor (BZD) was measured by determining the binding of 0.4 nM [^3H]flunitrazepam to rat cerebral cortex membranes, and its displacement by compounds of the invention as compared to the reference ligand diazepam, at 4° C. for 60 min, as described by R. C. Speth et al., Life Sci. 24:351-358 (1979).
The specific binding to the receptors is defined as the difference between the total binding and the non-specific binding determined in the presence of an excess of unlabeled ligand (diazepam). The results are expressed as a percent of control specific binding ((measured specific binding/control specific binding)×100) obtained in the presence of compound 5, 6 and 7.
In each experiment, the respective reference compound was tested concurrently with compound 5, 6 and 7 in order to assess the assay suitability. It was tested at several concentrations (for IC50 value determination).

The target of experiment [3] is platelet activating factor (PAF) (Homo sapiens, UniProt P25105). Conditions: known related thienotriazolodiazepine; cited from earlier work.
[4] abbreviates: 10^−6 M, 0.4 nM [3H]flunitrazepam.
Setting [5] is: 10^−7 M, 0.4 nM [3H]flunitrazepam.
The mark [6] stands for this setting: 10^−8 M, 0.4 nM [3H]flunitrazepam.
[7] abbreviates: 10^−9 M, 0.4 nM [3H]flunitrazepam.

Molecules are shown by their SMILES.

platelet activating factor (PAF), sequence (P25105 whole entry): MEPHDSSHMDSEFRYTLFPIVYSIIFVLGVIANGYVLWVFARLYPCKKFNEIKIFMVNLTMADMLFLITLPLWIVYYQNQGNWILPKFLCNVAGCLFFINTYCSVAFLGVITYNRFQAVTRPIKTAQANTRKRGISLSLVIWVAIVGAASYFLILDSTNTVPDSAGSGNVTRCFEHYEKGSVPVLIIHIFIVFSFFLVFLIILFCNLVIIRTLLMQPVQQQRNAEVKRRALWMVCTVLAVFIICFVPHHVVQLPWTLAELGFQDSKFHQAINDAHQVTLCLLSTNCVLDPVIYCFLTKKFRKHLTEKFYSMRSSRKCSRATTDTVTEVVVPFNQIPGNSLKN

`Cc1nnc2n1-c1sccc1C(c1ccccc1)=NC2(C)C` [compound 5, 6,6-Dimethyl-4-phenyl-9-methyl-6H-thieno[3,2f]-s-triazolo[4,3-a][1,4]diazepine]: the “Apo A1 (ng secreted per mg cell protein), 1st” value in experiment [1] (3 μM) is listed as 247 ng secreted per mg cell protein; in experiment [1] (10 μM), 274 ng secreted per mg cell protein; in experiment [1] (30 μM), 219 ng secreted per mg cell protein; in experiment [1] (100 μM), 273 ng secreted per mg cell protein. In addition, the “Apo A1 (ng secreted per mg cell protein), 2nd” value is on record as 124 ng secreted per mg cell protein in experiment [1] (3 μM), 156 ng secreted per mg cell protein in experiment [1] (10 μM), 227 ng secreted per mg cell protein in experiment [1] (30 μM) and 277 ng secreted per mg cell protein in experiment [1] (100 μM). Also, the “Apo A1 (ng secreted per mg cell protein), mean” value in experiment [1] (3 μM) is 185 ng secreted per mg cell protein; in experiment [1] (10 μM), 215 ng secreted per mg cell protein; in experiment [1] (30 μM), 223 ng secreted per mg cell protein; in experiment [1] (100 μM) it was 275 ng secreted per mg cell protein. The “Stimulation of apo A1 secretion versus control level (in words)” value in experiment [1] is “stimulated secetion of apo A1 above the control level”. Also, the “Affinity to the benzodiazepine receptor (in words)” value in experiment [2] is given as “no significant affinity”. The “% of control specific binding, 1st” value in experiment [2] (setting [4]) was 90.0 % of control specific binding; in experiment [2] (setting [5]), 91.5 % of control specific binding; in experiment [2] (setting [6]), 102.0 % of control specific binding; in experiment [2] (setting [7]), 88.9 % of control specific binding. Moreover, the “% of control specific binding, 2nd” value in experiment [2] (setting [4]) is reported as 100.4 % of control specific binding; in experiment [2] (setting [5]), 96.7 % of control specific binding; in experiment [2] (setting [6]), 94.3 % of control specific binding; in experiment [2] (setting [7]), 104.6 % of control specific binding. The “% of control specific binding, mean” value in experiment [2] (setting [4]) was 95.2 % of control specific binding; in experiment [2] (setting [5]), 94.1 % of control specific binding; in experiment [2] (setting [6]), 98.2 % of control specific binding; in experiment [2] (setting [7]) it was 96.8 % of control specific binding.

Take `Cc1nnc2n1-c1sc(CCC(=O)N3CCOCC3)cc1C(c1ccccc1Cl)=NC2` [WEB2086]: the “PAF antagonistic activity (in words)” value in experiment [3] is reported as “platelet activating factor (PAF) antagonistic activity”.

With `Cc1nnc2n1-c1sccc1C(c1ccc3c(c1)OCO3)=NC2` [compound 6, 4-(3′,4′-Methylenedioxyphenyl)-9-methyl-6H-thieno[3,2-f]-s-triazolo[4,3-a][1,4]diazepine], the “Apo A1 (ng secreted per mg cell protein), 1st” value in experiment [1] (3 μM) is given as 144 ng secreted per mg cell protein; in experiment [1] (10 μM) it was 186 ng secreted per mg cell protein; in experiment [1] (30 μM), 290 ng secreted per mg cell protein; in experiment [1] (100 μM), 397 ng secreted per mg cell protein. Also, the “Apo A1 (ng secreted per mg cell protein), 2nd” value is recorded as 160 ng secreted per mg cell protein in experiment [1] (3 μM), 212 ng secreted per mg cell protein in experiment [1] (10 μM), 293 ng secreted per mg cell protein in experiment [1] (30 μM) and 276 ng secreted per mg cell protein in experiment [1] (100 μM). The “Apo A1 (ng secreted per mg cell protein), mean” value in experiment [1] (3 μM) was 152 ng secreted per mg cell protein; in experiment [1] (10 μM) it was 199 ng secreted per mg cell protein; in experiment [1] (30 μM) it was 292 ng secreted per mg cell protein; in experiment [1] (100 μM), 336 ng secreted per mg cell protein. Moreover, in experiment [1], the “Stimulation of apo A1 secretion versus control level (in words)” value is given as “stimulated secetion of apo A1 above the control level”. The “Affinity to the benzodiazepine receptor (in words)” value in experiment [2] was “no significant affinity”. Besides, the “% of control specific binding, 1st” value is 88.7 % of control specific binding in experiment [2] (setting [4]), 104.1 % of control specific binding in experiment [2] (setting [5]), 92.7 % of control specific binding in experiment [2] (setting [6]) and 110.1 % of control specific binding in experiment [2] (setting [7]). The “% of control specific binding, 2nd” value in experiment [2] (setting [4]) was 100.5 % of control specific binding; in experiment [2] (setting [5]) it was 101.3 % of control specific binding; in experiment [2] (setting [6]) it was 91.0 % of control specific binding; in experiment [2] (setting [7]) it was 83.2 % of control specific binding. The “% of control specific binding, mean” value is 94.6 % of control specific binding in experiment [2] (setting [4]), 102.7 % of control specific binding in experiment [2] (setting [5]), 91.9 % of control specific binding in experiment [2] (setting [6]) and 96.7 % of control specific binding in experiment [2] (setting [7]).

In general, IC50 refers to the concentration needed to halve the response being measured. For the compound `CN1C(=O)CN=C(c2ccccc2)c2cc(Cl)ccc21` [diazepam, reference compound], the 50% inhibitory concentration (IC50) in experiment [2] (0.4 nM [3H]flunitrazepam, 4° C., 60 min, read-out: IC50 of reference ligand in BZD binding assay) was determined as 16 nM.
